According to patent US5541163A, “Renin inhibiting N-(2-amino-2-oxoethyl)butanediamide derivatives” (Bio-Mega/Boehringer Ingelheim Research Inc., priority 1993, dated 1996):
pIC50: −log10 of the molar value.

Target: T1, human renin (Homo sapiens, UniProt P00797)
T1 construct: A human plasma pool is used as the source of both the substrate (angiotensinogen) and the enzyme (renin); from tissue; host or cells: human plasma pool
T1 sequence (P00797 67-406): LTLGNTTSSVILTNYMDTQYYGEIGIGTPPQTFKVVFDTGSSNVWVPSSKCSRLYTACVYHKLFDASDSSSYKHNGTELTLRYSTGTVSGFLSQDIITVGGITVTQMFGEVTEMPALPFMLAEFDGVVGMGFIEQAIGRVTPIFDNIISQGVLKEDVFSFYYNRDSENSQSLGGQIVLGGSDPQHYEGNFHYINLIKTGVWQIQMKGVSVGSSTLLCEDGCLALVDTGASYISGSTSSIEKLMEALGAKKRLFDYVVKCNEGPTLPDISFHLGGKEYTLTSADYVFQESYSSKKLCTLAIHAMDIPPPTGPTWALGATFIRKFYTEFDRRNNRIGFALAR
Experiment: Plasma renin assay (inhibition of human renin, angiotensin I by RIA)
Type: biochemical
Settings: human plasma pool, pH 6.0, 2 h incubation at 37°
Method in brief: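 Pooled human plasma supplies both renin and angiotensinogen; inhibitor in MES/1% HSA buffer (1% DMSO final) incubated 2 h at 37° at pH 6.0. Angiotensin I generated quantified by radioimmunoassay, inhibition relative to no-inhibitor control, IC50 by nonlinear regression.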

| Compound | pIC50 |
| --- | --- |
| CC(C)C[C@H](O)[C@H](O)[C@H](CC1CCCCC1)NC(=O)[C@@H](CC(=O)N(CC(=O)N(C)CCc1ccccn1)Cc1ccccc1)Cc1csc(N)n1 [Compound 57, N^4-benzyl-N^4 -{2-{methyl[2-(2-pyridinyl)ethyl]amino}-2-oxoethyl}-N^1-[1(S)-(cyclohexylmethyl)-2(R),3(S)-dihydroxy-5-methylhexyl]-2(R)-[(2-amino-4-thiazolyl)methyl]-butanediamide] | 9.00 |
| CC(C)C[C@H](O)[C@H](O)[C@H](CC1CCCCC1)NC(=O)[C@@H](CC(=O)N(CC(=O)N(C)C)CC1CCCCC1)Cc1cccnc1 [Compound 58, N^4-(cyclohexylmethyl)-N^4-[2-(dimethylamino)-2-oxoethyl]-N^1-[1(S)-(cyclohexylmethyl)-2(R),3(S)-dihydroxy-5-methylhexyl]-2(R)-(3-pyridinylmethyl)butanediamide] | 8.00 |
| CC(C)C[C@H](O)[C@H](O)[C@H](CC1CCCCC1)NC(=O)[C@@H](CC(=O)N(CC(=O)N1CCOCC1)CC1CCCCC1)Cc1cccnc1 [Compound 59, N^4-(cyclohexylmethyl)-N^4-(2-morpholino-2-oxoethyl)-N^1-[1(S)-(cyclohexylmethyl)-2(R),3(S)-dihydroxy-5-methylhexyl]-2(R)-(3-pyridinylmethyl)butanediamide] | 8.00 |
| CC(C)C[C@H](O)[C@H](O)[C@H](CC1CCCCC1)NC(=O)[C@@H](CC(=O)N(CCc1ccccc1)CC(=O)N(C)C)Cc1csc(N)n1 [Compound 60, N^4-[2-(dimethylamino)-2-oxoethyl]-N^4-(2-phenylethyl)-N^1-[1(S)-(cyclohexylmethyl)-2(R),3(S)-dihydroxy-5-methylhexyl]-2(R)-[(2-amino-4-thiazolyl)methyl]butanediamide] | 8.30 |
| CC(C)C[C@H](O)[C@H](O)[C@H](CC1CCCCC1)NC(=O)[C@@H](CC(=O)N(CC(=O)N(C)C)C[C@@H](C)c1ccccc1)Cc1csc(N)n1 [Compound 61, N^4-[2-(dimethylamino)-2-oxoethyl]-N^4-[2(S)-phenylpropyl]-N^1-[1(S)-(cyclohexylmethyl)-2(R),3(S)-dihydroxy-5-methylhexyl]-2(R)-[(2-amino-4-thiazolyl)methyl]-butanediamide] | 8.46 |
| COCOC1CCN(C(=O)CN(CC2CCCCC2)C(=O)C[C@@H](Cc2csc(N)n2)C(=O)N[C@@H](CC2CCCCC2)[C@@H](O)[C@@H](O)CC(C)C)CC1 [Compound 62, N^4 -{2-[4-(methoxymethoxy)piperidinyl]-2-oxoethyl}-N^4-(cyclohexylmethyl)-N^1-[1(S)-(cyclohexylmethyl)-2(R),3(S)-dihydroxy-5-methylhexyl]-2(R)-[(2-amino-4-thiazolyl)methyl]-butanediamide] | 8.52 |
| CC(C)C[C@H](O)[C@H](O)[C@H](CC1CCCCC1)NC(=O)[C@@H](CC(=O)N(CC(=O)N(C)CCc1ccccn1)[C@@H](C)C1CCCCC1)Cc1csc(N)n1 [Compound 63, N^4-[1(S)-cyclohexylethyl]-N^4 -{2-{methyl[2-(2-pyridinyl)ethyl]-amino}-2-oxoethyl}-N^1-[1(S)-(cyclohexylmethyl)-2(R),3(S)-dihydroxy-5-methylhexyl]-2(R)-[(2-amino-4-thiazolyl)methyl]butanediamide] | 9.00 |
| CC(C)C[C@H](O)[C@H](O)[C@H](CC1CCCCC1)NC(=O)[C@@H](CC(=O)N(CC(=O)N(C)C)Cc1ccccn1)Cc1csc(N)n1 [Compound 64, N^4-[2-(dimethylamino)-2-oxoethyl]-N^4-(2-pyridinylmethyl)-N^1-[1(S)-(cyclohexylmethyl)-2(R),3(S)-dihydroxy-5-methylhexyl]-2(R)-[(2-amino-4-thiazolyl)methyl]-butanediamide] | 8.00 |
| CN(CCc1ccccn1)C(=O)CN(CC1CCCCC1)C(=O)C[C@@H](Cc1csc(N)n1)C(=O)N[C@@H](CC1CCCCC1)[C@@H](O)CSc1nnnn1C [Compound 65, N^4-(cyclohexylmethyl)-N^4 -{2-{methyl-[2-(2-pyridinyl)ethyl]amino}-2-oxoethyl}-N^1 -{1(S)-(cyclohexylmethyl)-2(R)-hydroxy-3-[(l-methyl-1H-tetrazol-5-yl)thio]propyl}-2(R)-[(2-amino-4-thiazolyl)methyl]-butanediamide] | 7.35 |
| CC(C)C[C@H](O)[C@H](O)[C@H](CC1CCCCC1)NC(=O)[C@@H](CC(=O)N(CC(=O)N(C)CCc1ccccn1)CC1CCCCC1)Cc1cccnc1 [Compound 66, N^4-(cyclohexylmethyl)-N^4 -{2-{methyl-[2-(2-pyridinyl)ethyl]amino}-2-oxoethyl}-N^1-[1(S)-(cyclohexylmethyl)-2(R),3(S)-dihydroxy-5-methylhexyl]-2(R)-(3-pyridinylmethyl)-butanediamide] | 8.00 |
| CC(C)C[C@H](O)[C@H](O)[C@H](CC1CCCCC1)NC(=O)[C@@H](CC(=O)N(CC(=O)N1CCOCC1)CC1CCCCC1)Cc1ccccn1 [Compound 67, N^4-(cyclohexylmethyl)-N^4-(2-morpholino-2-oxoethyl)-N^1-[1(S)-(cyclohexylmethyl)-2(R),3(S)-dihydroxy-5-methylhexyl]-2(R)-(2-pyridinylmethyl)butanediamide] | 8.40 |
| CC(C)C[C@H](O)[C@H](O)[C@H](CC1CCCCC1)NC(=O)[C@@H](CC(=O)N(CC(=O)N(C)C)CC1CCCCC1)Cc1ccccn1 [Compound 68, N^4-(cyclohexylmethyl)-N^4-[2-(dimethylamino)-2-oxoethyl]-N^1-[1(S)-(cyclohexylmethyl)-2(R),3(S)-dihydroxy-5-methylhexyl]-2(R)-(2-pyridinylmethyl)butanediamide] | 8.40 |
| CC(C)C[C@H](O)[C@H](O)[C@H](CC1CCCCC1)NC(=O)[C@@H](CC(=O)N(CC(=O)N(C)C)CC1CCCC1)Cc1cccnc1 [Compound 69, N^4-(cyclopentylmethyl)-N^4-[2-(dimethylamino)-2-oxoethyl]-N^1-[1(S)-(cyclohexylmethyl)-2(R),3(S)-dihydroxy-5-methylhexyl]-2(R)-(3-pyridinylmethyl)butanediamide] | 7.49 |
| CC(C)C[C@H](O)[C@H](O)[C@H](CC1CCCCC1)NC(=O)[C@@H](CC(=O)N(CC(=O)N(C)C)CC1CCCCCC1)Cc1cccnc1 [Compound 70, N^4-(cycloheptylmethyl)-N^4-[2-(dimethylamino)-2-oxoethyl]-N^1-[1(S)-(cyclohexylmethyl)-2(R),3(S)-dihydroxy-5-methylhexyl]-2(R)-(3-pyridinylmethyl)butanediamide] | 8.15 |
| CC(C)C[C@H](O)[C@H](O)[C@H](CC1CCCCC1)NC(=O)[C@@H](CC(=O)N(CC(=O)N(C)CCc1ccccn1)CC1CCCC1)Cc1csc(N)n1 [Compound 71, N^4-(cyclopentylmethyl)-N^4 -{2-{methyl[2-(2-pyridinyl)ethyl]-amino}-2-oxoethyl]-N^1-[1(S)-(cyclohexylmethyl)-2(R),3(S)-dihydroxy-5-methylhexyl]-2(R)-[(2-amino-4-thiazolyl)methyl]butanediamide] | 9.00 |
| CC(C)C[C@H](O)[C@H](O)[C@H](CC1CCCCC1)NC(=O)[C@@H](CC(=O)N(CC(=O)N(C)CCc1ccccn1)Cc1cccs1)Cc1csc(N)n1 [Compound 72, N^4 -{2-{methyl[2-(2-pyridinyl)ethyl]-amino}-2-oxoethyl}-N^4-(2-thienylmethyl)-N^1-[1(S)-(cyclohexylmethyl)-2(R),3(S)-dihydroxy-5-methylhexyl]-2(R)-[(2-amino-4-thiazolyl)methyl]-butanediamide] | 8.70 |
| Cc1cc(C)cc(CN(CC(=O)N(C)C)C(=O)C[C@@H](Cc2csc(N)n2)C(=O)N[C@@H](CC2CCCCC2)[C@@H](O)[C@@H](O)CC(C)C)c1 [Compound 73, N^4-[2-(dimethylamino)-2-oxoethyl]-N^4-[(3,5-dimethylphenyl)methyl]-N^1-[1(S)-(cyclohexylmethyl)-2(R),3(S)-dihydroxy-5-methylhexyl]-2(R)-[(2-amino-4-thiazolyl)methyl]butanediamide] | 8.52 |
| CC(C)OC(=O)[C@H](O)[C@H](CC1CCCCC1)NC(=O)[C@@H](CC(=O)N(CC(=O)N(C)CCc1ccccn1)CC1CCCCC1)Cc1csc(N)n1 [Compound 74, N^4-(cyclohexylmethyl)-N^4 -{2-{methyl-[2-(2-pyridinyl)ethyl]amino}-2-oxoethyl}-N^1-[1(S)-(cyclohexylmethyl)-2(R)-hydroxy-3-(1-methylethoxy)-3-oxopropyl]-2(R)-[(2-amino-4-thiazolyl)methyl]butanediamide] | 7.74 |
| CC(C)C[C@H](O)[C@H](O)[C@H](CC1CCCCC1)NC(=O)[C@@H](CC(=O)N(CC(=O)N(C)CCc1ccccn1)[C@@H](C)c1ccccc1)Cc1csc(N)n1 [Compound 75, N^4 -{2-{methyl[2-(2-pyridinyl)ethyl]-amino}-2-oxoethyl}-N^4-[1(S)-phenylethyl]-N^1-[1(S)-(cyclohexylmethyl)-2(R),3(S)-dihydroxy-5-methylhexyl]-2(R)-[(2-amino-4-thiazolyl)methyl]butanediamide] | 9.00 |
| CC(C)C[C@H](O)[C@H](O)[C@H](CC1CCCCC1)NC(=O)[C@@H](CC(=O)N(CC(=O)N(C)CCc1cccnc1)CC1CCCCC1)Cc1csc(N)n1 [Compound 76, N^4-(cyclohexylmethyl)-N^4 -{2-{methyl[2-(3-pyridinyl)ethyl]-amino}-2-oxoethyl}-N^1-[1(S)-(cyclohexylmethyl)-2(R),3(S)-dihydroxy-5-methylhexyl]-2(R)-[(2-amino-4-thiazolyl)methyl]butanediamide] | 9.40 |
